What all share (format): cell-based
Test [1] relates to SKOV3 cells. Kind of test: Boyden chamber chemotaxis/migration of SKOV3 cells. Particulars: SKOV3. The method, then: A2780 (FIG. 10a) and SKOV3 (FIG. 10b) cells were incubated with the indicated concentrations of Å6 peptide for 30 min at 37° C. Aliquots representing 6,000 cells were placed on quadruplicate, CnI-coated filters (8 μm pores) in Boyden chambers and the cells allowed to migrate overnight in response to 10 ng/ml VEGF in NIH3T3-conditioned media containing the indicated concentrations of Å6. Upon completion of migration, the apical surfaces of the membranes were wiped clean and the migrating cells on the basal surface were stained with Geimsa stain and the cells present in representative fields of the membranes counted. Data represent the averages+/−standard deviations obtained from the replicate filters. […] This provides further confirmation that CD44 is the target for the Å6 peptide.
SKOV3 cells are harvested by trypsinization and washed once with RPMI−0.5% BSA. Next, the cells are re-suspended in RPMI+0.5% BSA @ 6E4/mL (6000 cells/100 μL). The peptide is pre-treated with 500 μL of cells added to 500 μL peptide NASAPPEE (2× concentration, final conc. at 100, 10, 1, 0.1, 0.01, 0.001 uM) and the mixture incubated 30 minutes at 37° C., under 5% CO2. The Boyden chamber is assembled by: Placing in the bottom chambers: 220 μL of serum/BSA free DMEM or NIH3T3CM+10 ng/ml VEGF or NIH3T3CM+10 ng/ml VEGF+peptide. Place 8 μm filters on the top of the bottom chambers. The 8 μm filters are coated with 1 mg/ml collagen I at 4° C. overnight, washed with PBS twice, air dry before use. Add 200 μL of cells with or without peptide pretreatment to the top of Boyden chamber. Note that the peptide is in both top and bottom chambers. Cells migrate overnight at 37° C., under 5% CO2 in incubator. Next, Boyden chambers are disassembled the and filters collected. The cells on the filters after collection are treated with −20° C. methanol for 3 minutes at room temperature and stained with 30% Geimsa for 7 minutes at room temperature, and washed with water twice. The filters are mounted on slides, air dried and the cells counted.
Cell numbers were obtained by counting the cells in four fields of filters using a 40× objective. The cells migrating into the bottom chambers were also counted as follows: a) 200 μL fluid in the bottom chamber was transferred to a well of 96-well plate; b) The plate was centrifuged at 1200 rpm for 5 minutes; c) 180 μL of supernatant was removed; d) The cell pellet was resuspended with the remaining 20 μL fluid and the cells counted using a hemocytometer. […] This compares favorably to the Å6 peptide which is effective between 5 μM and 100 nM.

For test [2], the system named is PKCalpha. Kind of test: PKCalpha phosphorylation in SKOV3 cells, immunoblot. On the procedure: (§1) Cells were detached from their culture vessels by brief trypsinization, suspended in complete media and centrifuged at 250×g for 10 min at room temperature. The cell pellets were suspended in Dulbeco's phosphate buffered saline (DPBS) and re-centrifuged for a total of three washes. The cells were then re-suspended at 3.33E5/ml in 24 ml of either RPMI containing 0.5% BSA (Sigma Chem. Co. #A0336) (RPMI/BSA) or the conditioned media of growing NIH3T3 fibroblasts (10% FBS in DMEM) supplemented with 10 ng/ml vascular endothelial growth factor (VEGF) (CMN). The cells were then treated with or without 100 ug/ml soluble hyaluronic acid (HA; human umbilical, Calbiochem #385902) for 30 min at 37° C. under 5% CO2. Aliquots representing 2E6 cells were then plated into 10 cm culture dishes and A6 added to yield final concentrations of 0, 10, 100 and 1000 nM. The cells were cultured overnight (18 hr) at 37° C. under 5% CO2.
(§2) After 18 hr of treatment, the media were aspirated from the 10 cm dishes and saved. The plates were washed 3 times with 4 ml of ice-cold DPBS which were pooled with the reserved non-adherent cells. The non-adherent cells were centrifuged at 250×g for 10 min at 4° C., washed twice with cold DPBS, drained and lysed in 50 ul of cold RIPA buffer (ThermoScientific #89901) containing cocktails of broad spectrum phosphatase inhibitors (Calbiochem #524625; used at 2× final concentration) and protease inhibitors (Sigma #P8340) (RIPA/inh.). The 10 cm dishes were drained of remaining wash and the adherent cells lysed by scraping in 200 μL of cold RIPA/inh. For each test condition, the lysates of the non-adherent and adherent populations were combined, vortexed and then centrifuged at 14,000 rpm at 4° C. for 20 min. Aliquots of the cleared lysates were frozen at −80° C. immediately. A small aliquot was reserved for total protein analysis using a BCA Protein Assay Kit (Calbiochem #71285-3).
(§3) Samples representing 20 μg of total protein of each lysate were solubilized in the presence of 50 mM Tris pH 6.8, 10% glycerol, 2% SDS and 100 mM DTT for 5 min at 95° C. and then loaded onto 10-20% acrylamide gels (BioRad #345-0044, Tris-HCl, 1 mm, 26 well, 15 μL/well). Electrophoresis was performed using Laemli electrophoresis buffer (0.1% SDS, 25 mM Tris, 192 mM glycine) at 200 V, constant voltage, for one hour. Upon completion of electrophoresis, the proteins were transferred to Immun-Blot PVDF membranes (BioRad #162-0238) in ice-cold 20% methanol in 25 mM Tris, 192 mM glycine for 2 hr at 0.5 Amps, constant current/blotting apparatus. The membranes were then cut vertically between molecular weight markers and in half at the 64 kDa marker to generate pieces for screening of higher molecular weight proteins (e.g., FAK) and lower molecular weight proteins (e.g., MEK and GAPDH). […]
On the technique in general: In western blotting, separated proteins are transferred to a membrane and probed.

Test [3] concerns FAK. As to the kind of experiment: FAK phosphorylation in SKOV3 cells, immunoblot and densitometry. Particulars: SKOV3, all conditions; Y397, Y576/577, Y925. The method, then:
as §1, §2
as §3, with “apparatus.” for “apparatus. The membranes were then cut vertically between molecular weight markers and in half at the 64 kDa marker to generate pieces for screening of higher molecular weight proteins (e.g., FAK) and lower molecular weight proteins (e.g., MEK and GAPDH).”
(§4) The integrated densities (id) of the bands of interest were measured using Image J software (NIH). […]

Test [4] has as its system ERK 1/2. As to the kind of experiment: ERK 1/2 phosphorylation (T202/Y204) in SKOV3 cells, immunoblot. Particulars: basal media (RPMI/BSA). On the procedure:
as §1, §2
Samples representing 20 μg of total protein of each lysate were solubilized in the presence of 50 mM Tris pH 6.8, 10% glycerol, 2% SDS and 100 mM DTT for 5 min at 95° C. and then loaded onto 10-20% acrylamide gels (BioRad #345-0044, Tris-HCl, 1 mm, 26 well, 15 μL/well). Electrophoresis was performed using Laemli electrophoresis buffer (0.1% SDS, 25 mM Tris, 192 mM glycine) at 200 V, constant voltage, for one hour. Upon completion of electrophoresis, the proteins were transferred to Immun-Blot PVDF membranes (BioRad #162-0238) in ice-cold 20% methanol in 25 mM Tris, 192 mM glycine for 2 hr at 0.5 Amps, constant current/blotting apparatus. The membranes were then cut vertically between molecular weight markers and in half at the 64 kDa marker to generate pieces for screening of higher molecular weight proteins (e.g., FAK) and lower molecular weight proteins (e.g., MEK and GAPDH). The blots were then blocked for a minimum of 4 hrs at room temperature in 3% bovine serum albumin (Sigma A0336) in 50 mM Tris, pH 7.4, 145 mM NaCl, 0.05% Tween-20 (TTBS) containing 0.05% sodium azide.
Upon completion of the primary antibody incubation, the blots were washed three times for 10 min in TTBS and then incubated with 1/25,000 dilutions of peroxidase-conjugated donkey anti-mouse IgG (Jackson ImmunoResearch #715-035-150) or peroxidase-conjugated donkey anti-rabbit IgG (Jackson ImmunoResearch #711-035-152) in TTBS containing 3% BSA for one hour at room temperature. […]

Test [5] concerns MEK. As to the kind of experiment: MEK phosphorylation (S217/221) in SKOV3 cells, immunoblot and densitometry. The method, then:
as §1, §2
as §3, with “apparatus.” for “apparatus. The membranes were then cut vertically between molecular weight markers and in half at the 64 kDa marker to generate pieces for screening of higher molecular weight proteins (e.g., FAK) and lower molecular weight proteins (e.g., MEK and GAPDH).”
as §4

For the substance “NASAPPEE (peptide which potentiates the binding of CD44 polypeptide expressing cells to hyaluronic acid (HA)) [corresponds to amino acids 120-127 of CD44]”, in test [1], the “cell migration inhibition, lower end of effective concentration range” value amounted to 1 nM and the “cell migration inhibition, upper end of effective concentration range” value worked out at 100 µM.
In the case of “hyaluronic acid [HA, reference compound]”, the pPCKa/PKCa result in test [2] is listed as “appears to have enhanced”. Further, the pFAK/FAK ratios result in test [3] is reported as “reduced”. Further, the pERK/Erk result in test [4] is on record as “increased”. Further, in test [5], the “total MEK levels” value was “appears to have decreased”. Besides, in test [5] (under all conditions), the pMEK/MEK result is listed as “increased”.
